This is an account of results in PMC12909347, “Disconnect between in vitro and in vivo efficacy of the MPS1 inhibitor NTRC 0066-0 against glioblastoma” (Cellular Oncology, 2026).

For experiment [1], the system named is orthotopic E98 GBM tumors. The experiment in a line: Orthotopic E98 GBM xenograft efficacy in Abcb1a/b;Abcg2-/- mice. The experiment is classed as in vivo. The note with it: TMZ + RT given at tumor size 10^7-10^8 p/s. The protocol:
Orthotopic GBM tumors were induced in Abcb1a/b; Abcg2^−/− mice by stereotactic injection of E98 cells expressing firefly luciferase (200,000 cells in 2 µL HBSS (Life Technologies) at an injection speed of 1 µL/min) at 2 mm lateral, 1 mm anterior and 3 mm ventral to the bregma. Tumor growth was monitored using bioluminescence imaging by injecting D-luciferin (150 mg/kg i.p.; Promega, Madison, WI) and subsequently imaging mice on an IVIS Spectrum Imaging System (PerkinElmer, Waltham, MA). Survival was monitored daily and the humane endpoint was defined as body weight loss exceeding 20%. Time-to-recurrence was defined as the number of days elapsed until the tumor regained its pre-treatment size. Tumors were treated with CT-guided radiotherapy (2–3.5 Gy per fraction) using an X-RAD 225Cx system (Precision X-Ray, North Branford, CT), temozolomide (10 mg/kg p.o. freshly prepared from powder in an aqueous solution containing 10% v/v ethanol), NTRC0066-0 (20, 10 or 5 mg/kg p.o. in an aqueous solution containing 10% v/v DMSO and 10% v/v Cremophor EL (Life Technologies)) or different combinations thereof, as described per experiment in the Figure legends.

The next experiment has as its system MPS1. More on the design: method as in PMID 23940287. The settings on record: reported; cited from earlier work.

For the molecule `Cn1nnc2c(C(N)=O)ncn2c1=O` [TMZ, temozolomide, reference compound], the “Tumor bioluminescence signal after regression” value in experiment [1] was “about 10^5 p/s”.
Turning to `COc1cc(N2CCC(O)CC2)ccc1Nc1nc(Nc2ccccc2S(=O)(=O)C(C)C)c2[nH]cnc2n1` [MPS1-IN-3], in the experiment on MPS1, the “IC50s (intrinsic potency)” value is “micromolar range”.
